According to US8492374B2, “Azaazulene compounds” (Industrial Technology Research Institute, priority 2009, dated 2013):
pIC50: −log10 of the molar value.

Legend:
[1] = biological target: RET V804L (Homo sapiens, UniProt P07949, V804L); experiment: Kinase panel assay (SelectScreen Kinase Profiling, Invitrogen); assay type: biochemical; settings: 1000 nM of compound B26
Procedure: (§1) The kinase panel assay of compound B26 of this invention was performed by SelectScreen® Kinase Profiling Services of Invitrogen. The inhibitory effects of 1000 nM of compound B26 against various kinases whom shown >50% inhibitory effects are summarized in following Table 5.

[2] = biological target: FLT3 D835Y (Homo sapiens, UniProt P36888, D835Y); experiment: as above; assay type: biochemical; settings: 1000 nM of compound B26
Procedure: as §1

[3] = biological target: NTRK2 (TRKB) (Homo sapiens, UniProt Q16620); experiment: as above; assay type: biochemical; settings: 1000 nM of compound B26
Procedure: as §1

[4] = biological target: AMPK A2/B1/G1 (Homo sapiens, UniProt P54646); experiment: as above; assay type: biochemical; settings: 1000 nM of compound B26
Procedure: as §1

[5] = biological target: NTRK1 (TRKA) (Homo sapiens, UniProt P04629); experiment: as above; assay type: biochemical; settings: 1000 nM of compound B26
Procedure: as §1

[6] = biological target: KDR (VEGFR2) (Homo sapiens, UniProt P35968); experiment: as above; assay type: biochemical; settings: 1000 nM of compound B26
Procedure: as §1

[7] = biological target: LYN A (Homo sapiens, UniProt P07948); experiment: as above; assay type: biochemical; settings: 1000 nM of compound B26
Procedure: as §1

[8] = biological target: FLT3 (Homo sapiens, UniProt P36888); experiment: as above; assay type: biochemical; settings: 1000 nM of compound B26
Procedure: as §1

[9] = biological target: AMPK A1/B1/G1 (Homo sapiens, UniProt Q13131); experiment: as above; assay type: biochemical; settings: 1000 nM of compound B26
Procedure: as §1

[10] = tested on: MV4-11 (FLT3-ITD) cell line; experiment: In vitro cell activity assay (MTT cell viability, 72 hours); assay type: cell-based; settings: Homo sapiens, 72 hours at 37° C., 10,000 cells per well, read-out: IC50 against MV4-11
Summary of the method: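 Compound serial dilutions applied to MV4-11 (FLT3-ITD) cells, 10,000 per well, for 72 hours at 37° C. Viability by MTT, formazan dissolved in DMSO, absorbance at 600 nm; IC50 by nonlinear regression as concentration halving absorbance versus untreated cells.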

Sequence of AMPK A1/B1/G1 (Q13131 whole entry): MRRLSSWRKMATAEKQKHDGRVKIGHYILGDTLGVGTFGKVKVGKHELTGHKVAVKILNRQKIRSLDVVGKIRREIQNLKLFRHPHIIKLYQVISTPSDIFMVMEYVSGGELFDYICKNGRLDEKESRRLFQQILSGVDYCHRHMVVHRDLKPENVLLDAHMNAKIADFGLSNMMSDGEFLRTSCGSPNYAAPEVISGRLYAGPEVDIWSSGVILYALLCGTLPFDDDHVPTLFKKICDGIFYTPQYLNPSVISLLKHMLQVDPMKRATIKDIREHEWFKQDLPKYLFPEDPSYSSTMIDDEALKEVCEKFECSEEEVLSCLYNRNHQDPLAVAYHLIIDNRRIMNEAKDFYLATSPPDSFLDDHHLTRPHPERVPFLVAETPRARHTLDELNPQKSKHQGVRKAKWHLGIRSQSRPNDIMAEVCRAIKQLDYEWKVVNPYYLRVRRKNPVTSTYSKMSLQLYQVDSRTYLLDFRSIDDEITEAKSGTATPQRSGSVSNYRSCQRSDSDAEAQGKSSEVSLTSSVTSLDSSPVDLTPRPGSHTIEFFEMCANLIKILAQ
Sequence of AMPK A1/B1/G1 (Q9Y478 whole entry partner): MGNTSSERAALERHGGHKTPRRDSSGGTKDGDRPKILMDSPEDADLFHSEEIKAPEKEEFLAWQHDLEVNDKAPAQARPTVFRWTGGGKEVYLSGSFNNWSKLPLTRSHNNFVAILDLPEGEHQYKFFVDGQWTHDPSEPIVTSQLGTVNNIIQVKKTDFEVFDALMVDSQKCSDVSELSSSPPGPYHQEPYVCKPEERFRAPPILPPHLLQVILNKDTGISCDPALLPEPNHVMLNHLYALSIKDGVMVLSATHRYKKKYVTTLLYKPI
Sequence of AMPK A1/B1/G1 (P54619 whole entry partner): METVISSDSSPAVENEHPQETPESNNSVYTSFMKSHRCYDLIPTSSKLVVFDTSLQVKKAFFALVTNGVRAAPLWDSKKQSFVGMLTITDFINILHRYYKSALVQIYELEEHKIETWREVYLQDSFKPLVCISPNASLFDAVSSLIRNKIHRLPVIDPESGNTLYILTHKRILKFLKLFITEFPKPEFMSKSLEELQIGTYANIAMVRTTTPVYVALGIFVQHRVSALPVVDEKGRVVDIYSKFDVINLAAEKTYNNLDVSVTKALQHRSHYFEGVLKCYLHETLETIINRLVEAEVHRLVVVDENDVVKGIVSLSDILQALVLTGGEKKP
Sequence of NTRK1 (TRKA) (P04629 33-796): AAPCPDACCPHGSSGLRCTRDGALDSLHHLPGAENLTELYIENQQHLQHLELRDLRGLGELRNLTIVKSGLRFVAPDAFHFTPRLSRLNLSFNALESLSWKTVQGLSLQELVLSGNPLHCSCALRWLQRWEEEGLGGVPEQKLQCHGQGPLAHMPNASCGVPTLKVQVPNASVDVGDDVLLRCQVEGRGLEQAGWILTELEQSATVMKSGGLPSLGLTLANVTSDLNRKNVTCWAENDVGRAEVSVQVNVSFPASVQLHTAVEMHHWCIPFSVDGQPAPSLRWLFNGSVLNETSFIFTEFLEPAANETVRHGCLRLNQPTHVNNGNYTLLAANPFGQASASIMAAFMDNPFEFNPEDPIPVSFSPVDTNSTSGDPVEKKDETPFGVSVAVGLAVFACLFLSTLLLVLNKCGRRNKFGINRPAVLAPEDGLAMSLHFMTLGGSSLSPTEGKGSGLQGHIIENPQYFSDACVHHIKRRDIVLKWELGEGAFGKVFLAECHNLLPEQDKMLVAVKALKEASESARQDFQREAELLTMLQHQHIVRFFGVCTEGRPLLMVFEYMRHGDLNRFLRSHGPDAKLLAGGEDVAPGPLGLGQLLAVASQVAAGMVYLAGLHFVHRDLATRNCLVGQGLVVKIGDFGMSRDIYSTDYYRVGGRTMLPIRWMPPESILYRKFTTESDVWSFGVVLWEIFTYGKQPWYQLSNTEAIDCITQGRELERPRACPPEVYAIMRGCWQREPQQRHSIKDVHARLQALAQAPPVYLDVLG
Sequence of RET V804L (P07949 29-1114 V804L): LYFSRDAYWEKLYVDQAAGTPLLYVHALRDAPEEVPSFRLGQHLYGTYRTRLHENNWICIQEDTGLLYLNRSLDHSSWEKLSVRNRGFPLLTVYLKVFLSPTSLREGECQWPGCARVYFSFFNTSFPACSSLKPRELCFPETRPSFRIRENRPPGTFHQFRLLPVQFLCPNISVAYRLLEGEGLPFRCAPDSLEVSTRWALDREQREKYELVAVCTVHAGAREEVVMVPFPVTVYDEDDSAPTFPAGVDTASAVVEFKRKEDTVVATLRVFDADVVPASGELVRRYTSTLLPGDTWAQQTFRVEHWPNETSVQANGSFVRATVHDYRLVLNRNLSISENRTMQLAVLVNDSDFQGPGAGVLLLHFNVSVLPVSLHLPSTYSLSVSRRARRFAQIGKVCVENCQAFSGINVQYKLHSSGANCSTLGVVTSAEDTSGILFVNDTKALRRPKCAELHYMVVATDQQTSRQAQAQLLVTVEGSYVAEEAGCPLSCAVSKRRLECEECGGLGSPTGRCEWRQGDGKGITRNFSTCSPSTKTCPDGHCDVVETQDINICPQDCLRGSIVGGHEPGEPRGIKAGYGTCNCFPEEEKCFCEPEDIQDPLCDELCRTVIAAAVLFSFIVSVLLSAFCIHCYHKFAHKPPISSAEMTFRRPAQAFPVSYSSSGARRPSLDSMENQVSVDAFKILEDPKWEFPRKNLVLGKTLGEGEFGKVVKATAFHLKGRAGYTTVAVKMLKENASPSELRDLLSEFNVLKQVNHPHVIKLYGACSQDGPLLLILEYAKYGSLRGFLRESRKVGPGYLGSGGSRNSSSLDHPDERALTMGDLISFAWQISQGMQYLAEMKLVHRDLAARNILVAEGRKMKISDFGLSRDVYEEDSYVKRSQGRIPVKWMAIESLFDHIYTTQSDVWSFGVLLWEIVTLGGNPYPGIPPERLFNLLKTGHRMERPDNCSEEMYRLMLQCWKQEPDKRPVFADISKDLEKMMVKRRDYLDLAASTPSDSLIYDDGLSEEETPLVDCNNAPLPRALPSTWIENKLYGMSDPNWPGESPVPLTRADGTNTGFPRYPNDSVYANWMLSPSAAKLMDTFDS
Sequence of LYN A (P07948 whole entry): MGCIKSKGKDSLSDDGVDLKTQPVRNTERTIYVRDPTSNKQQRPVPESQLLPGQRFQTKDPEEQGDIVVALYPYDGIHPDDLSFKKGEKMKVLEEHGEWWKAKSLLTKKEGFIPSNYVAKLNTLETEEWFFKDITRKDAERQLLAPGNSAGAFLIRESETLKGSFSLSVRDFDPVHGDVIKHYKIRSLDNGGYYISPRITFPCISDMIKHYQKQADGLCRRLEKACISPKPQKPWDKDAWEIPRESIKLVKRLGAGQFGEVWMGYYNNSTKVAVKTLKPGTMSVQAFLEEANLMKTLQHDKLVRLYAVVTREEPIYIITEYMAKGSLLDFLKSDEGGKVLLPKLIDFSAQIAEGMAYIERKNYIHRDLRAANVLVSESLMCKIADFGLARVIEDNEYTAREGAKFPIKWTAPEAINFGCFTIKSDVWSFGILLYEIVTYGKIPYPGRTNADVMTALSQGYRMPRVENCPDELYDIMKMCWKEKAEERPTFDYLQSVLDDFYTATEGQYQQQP
Sequence of KDR (VEGFR2) (P35968 20-1356): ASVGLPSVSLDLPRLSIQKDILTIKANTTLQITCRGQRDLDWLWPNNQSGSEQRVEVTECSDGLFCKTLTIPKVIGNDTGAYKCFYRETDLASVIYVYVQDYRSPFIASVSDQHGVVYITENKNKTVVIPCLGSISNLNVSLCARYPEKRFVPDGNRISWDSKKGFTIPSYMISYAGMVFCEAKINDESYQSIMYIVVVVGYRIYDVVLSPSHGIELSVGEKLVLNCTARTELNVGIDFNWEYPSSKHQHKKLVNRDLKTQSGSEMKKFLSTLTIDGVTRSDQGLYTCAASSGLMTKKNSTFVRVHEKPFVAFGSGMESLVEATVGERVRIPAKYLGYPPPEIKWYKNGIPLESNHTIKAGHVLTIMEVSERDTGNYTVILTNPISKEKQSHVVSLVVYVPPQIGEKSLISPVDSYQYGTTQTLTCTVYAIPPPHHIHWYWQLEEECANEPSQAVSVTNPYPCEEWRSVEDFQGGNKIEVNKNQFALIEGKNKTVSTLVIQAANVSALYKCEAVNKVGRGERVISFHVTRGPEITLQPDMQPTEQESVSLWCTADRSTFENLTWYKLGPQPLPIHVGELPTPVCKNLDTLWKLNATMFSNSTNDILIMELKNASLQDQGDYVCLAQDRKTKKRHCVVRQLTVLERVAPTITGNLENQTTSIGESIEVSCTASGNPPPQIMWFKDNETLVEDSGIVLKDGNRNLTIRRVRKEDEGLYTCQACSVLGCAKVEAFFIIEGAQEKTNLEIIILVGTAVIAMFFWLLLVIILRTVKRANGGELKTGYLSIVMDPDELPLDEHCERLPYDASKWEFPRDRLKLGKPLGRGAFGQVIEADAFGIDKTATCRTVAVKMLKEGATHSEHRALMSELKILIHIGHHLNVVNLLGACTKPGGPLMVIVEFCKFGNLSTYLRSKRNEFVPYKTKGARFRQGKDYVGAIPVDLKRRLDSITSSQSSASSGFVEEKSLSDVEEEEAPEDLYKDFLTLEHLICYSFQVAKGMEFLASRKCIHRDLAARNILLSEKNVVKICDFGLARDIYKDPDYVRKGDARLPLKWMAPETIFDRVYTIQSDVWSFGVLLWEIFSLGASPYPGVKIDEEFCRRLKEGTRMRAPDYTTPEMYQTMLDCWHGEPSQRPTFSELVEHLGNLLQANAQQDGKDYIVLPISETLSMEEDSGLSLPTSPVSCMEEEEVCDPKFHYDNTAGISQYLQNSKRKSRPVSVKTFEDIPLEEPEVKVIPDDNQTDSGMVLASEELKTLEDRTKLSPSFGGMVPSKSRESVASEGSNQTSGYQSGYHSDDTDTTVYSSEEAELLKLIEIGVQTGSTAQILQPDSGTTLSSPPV

## CN1CCN(c2ccc3[nH]c(-c4c5cccccc-5[nH]c4=O)nc3c2)CC1 [Compound B26]
[1]
  inhibition at 1 µM: 79%
[2]
  inhibition at 1 µM: 98%
[3]
  inhibition at 1 µM: 84%
[4]
  inhibition at 1 µM: 70%
[5]
  inhibition at 1 µM: 89%
[6]
  inhibition at 1 µM: 64%
[7]
  inhibition at 1 µM: 57%
[8]
  inhibition at 1 µM: 95%
[9]
  inhibition at 1 µM: 88%
[10]
  pIC50: 7.68
